Counter-ions that a name gives are not always drawn.
molecular target: T1, human PTH1 receptor (Homo sapiens, UniProt Q03431); test: In vitro cAMP signal activity in HKRK-B7 cells (LLC-PK1 cells overexpressing the human PTH1 receptor); type: cell-based; conditions: HKRK-B7 cells; compound at 1×10^−3 M; cAMP produced as percentage of that produced by hPTH(1-34) at 100 nM
T1 sequence (Q03431 27-593): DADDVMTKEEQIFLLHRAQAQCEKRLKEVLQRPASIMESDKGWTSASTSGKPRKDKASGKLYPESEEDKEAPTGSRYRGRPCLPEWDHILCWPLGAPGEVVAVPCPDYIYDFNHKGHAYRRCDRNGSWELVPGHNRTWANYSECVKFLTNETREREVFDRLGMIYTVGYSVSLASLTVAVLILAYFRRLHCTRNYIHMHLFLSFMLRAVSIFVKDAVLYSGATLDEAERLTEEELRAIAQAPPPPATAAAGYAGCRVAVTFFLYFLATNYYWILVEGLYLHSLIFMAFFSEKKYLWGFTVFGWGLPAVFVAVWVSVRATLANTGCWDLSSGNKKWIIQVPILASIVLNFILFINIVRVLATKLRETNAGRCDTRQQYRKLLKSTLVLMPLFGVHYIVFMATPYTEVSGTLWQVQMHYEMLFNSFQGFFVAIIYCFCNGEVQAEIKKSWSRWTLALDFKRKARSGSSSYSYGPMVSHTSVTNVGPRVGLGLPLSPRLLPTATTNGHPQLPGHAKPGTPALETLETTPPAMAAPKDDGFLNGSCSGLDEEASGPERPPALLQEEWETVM

Row | cAMP production activity (%) | Structure (SMILES)
1 | 78 | Cc1cc(C(=O)N(C)C)ccc1CCS(=O)(=O)N1CCC2(CC1)N=C(c1ccccc1OC(F)(F)F)NC2=O [Compound 105, 3,N,N-trimethyl-4-{2-[4-oxo-2-(2-trifluoromethoxy-phenyl)-1,3,8-triaza-spiro[4.5]dec-1-ene-8-sulfonyl]-ethyl}-benzamide]
2 | 54 | CCCCc1ccc2cc1OCCCCCOCCN(C)C(=O)c1ccc(c(C)c1)CCS(=O)(=O)N1CCC3(CC1)N=C2NC3=O [Compound 1434]
3 | 48 | Cc1cc(C(=O)N(C)C)ccc1CCS(=O)(=O)N1CCC2(CC1)N=C(C(C)(C)C)NC2=O [Compound 74, 4-[2-(2-tert-butyl-4-oxo-1,3,8-triaza-spiro[4.5]dec-1-ene-8-sulfonyl)-ethyl]-3,N,N-trimethyl-benzamide]
4 | 64 | CCCCC1CCC(NC2=NC3(CCN(S(=O)(=O)CCc4ccc(C(=O)N(C)C)cc4C)CC3)C(=O)N2)CC1 (stereo not shown) [Compound 1404, 4-{2-[2-(4-butyl-cyclohexylamino)-4-oxo-1,3,8-triaza-spiro[4.5]dec-1-ene-8-sulfonyl]-ethyl}-3,N,N-trimethyl-benzamide]
5 | 84 | Cc1cc(N(C)C(N)=O)cc(C)c1/C=C\S(=O)(=O)N1CCC2(CC1)N=C(CCCCCCCCCF)NC2=O [Compound 1326, 1-(4-{(Z)-2-[2-(9-fluoro-nonyl)-4-oxo-1,3,8-triaza-spiro[4.5]dec-1-ene-8-sulfonyl]-vinyl}-3,5-dimethyl-phenyl)-1-methyl-urea]
6 | 116 | Cc1cc(C2=NC3(CCN(S(=O)(=O)/C=C/c4c(C)cc(C(=O)N5CCC(O)(CF)CC5)cc4C)CC3)C(=O)N2)ccc1OC(F)(F)F [Compound 1258, 8-{(E)-2-[4-(4-fluoromethyl-4-hydroxy-piperidine-1-carbonyl)-2,6-dimethyl-phenyl]-ethenesulfonyl}-2-(3-methyl-4-trifluoromethoxy-phenyl)-1,3,8-triaza-spiro[4.5]dec-1-en-4-one]
7 | 83 | Cc1cc(C(=O)N2CCC(N)C2)ccc1CCS(=O)(=O)N1CCC2(CC1)N=C(c1cccc(C(F)(F)F)c1)NC2=O (stereo not shown) [Compound 445, 8-{2-[4-(3-amino-pyrrolidine-1-carbonyl)-2-methyl-phenyl]-ethanesulfonyl}-2-(3-trifluoromethyl-phenyl)-1,3,8-triaza-spiro[4.5]dec-1-en-4-one hydrochloride]
8 | 84 | CCC[C@@H]1CCC[C@H](C2=NC3(CCN(S(=O)(=O)CCc4ccc(NC(C)=O)cc4C)CC3)C(=O)N2)C1 [Compound 923, N-(3-methyl-4-{2-[4-oxo-2-((1S,3R)-3-propyl-cyclohexyl)-1,3,8-triaza-spiro[4.5]dec-1-ene-8-sulfonyl]-ethyl}-phenyl)-acetamide]
9 | 14 | Cc1cc(N2C(=O)C[C@H](NC(=O)OC(C)(C)C)C2=O)ccc1/C=C/S(=O)(=O)N1CCC2(CC1)N=C(c1cccc(C(F)(F)F)c1)NC2=O [Compound 525, [(S)-1-(3-methyl-4-{(E)-2-[4-oxo-2-(3-trifluoromethyl-phenyl)-1,3,8-triaza-spiro[4.5]dec-1-ene-8-sulfonyl]-vinyl}-phenyl)-2,5-dioxo-pyrrolidin-3-yl]-carbamic acid tert-butyl ester]
10 | 116 | Cc1cc(C(=O)N(C)C)cc(C)c1CCS(=O)(=O)N1CCC2(CC1)N=C(C1CCC(CCC(F)(F)F)CC1)NC2=O (stereo not shown) [Compound 1378, 3,5,N,N-Tetramethyl-4-(2-{4-oxo-2-[4-(3,3,3-trifluoro-propyl)-cyclohexyl]-1,3,8-triaza-spiro[4.5]dec-1-ene-8-sulfonyl}-ethyl)-benzamide]
11 | 87 | CNc1cc(C)c(CCS(=O)(=O)N2CCC3(CC2)N=C(C2CCC(=C(C)C)CC2)NC3=O)c(C)c1 (stereo not shown) [Compound 1037, 8-[2-(2,6-Dimethyl-4-methylamino-phenyl)-ethanesulfonyl]-2-(4-isopropylidene-cyclohexyl)-1,3,8-triaza-spiro[4.5]dec-1-en-4-one]
12 | 9.2 | Cc1cc(OC[C@H](O)CO)cc(C)c1CCS(=O)(=O)N1CCC2(CC1)N=C(c1ccc3c(c1)OC(F)(F)O3)NC2=O [Compound 1330, 2-(2,2-difluoro-benzo[1,3]dioxol-5-yl)-8-{2-[4-((R)-2,3-dihydroxy-propoxy)-2,6-dimethyl-phenyl]-ethanesulfonyl}-1,3,8-triaza-spiro[4.5]dec-1-en-4-one]
13 | 13 | Cc1cc(N(C)C(N)=O)cc(C)c1CCS(=O)(=O)N1CCC2(CC1)N=C(CCCCCCCS(C)(=O)=O)NC2=O [Compound 1357, 1-(4-{2-[2-(7-methanesulfonyl-heptyl)-4-oxo-1,3,8-triaza-spiro[4.5]dec-1-ene-8-sulfonyl]-ethyl}-3,5-dimethyl-phenyl)-1-methyl-urea]
14 | 50 | Cc1cc(C(=O)N2CCC[C@H]2C(N)=O)ccc1CCS(=O)(=O)N1CCC2(CC1)N=C(c1cccc(C(F)(F)F)c1)NC2=O [Compound 367, (S)-1-(3-methyl-4-{2-[4-oxo-2-(3-trifluoromethyl-phenyl)-1,3,8-triaza-spiro[4.5]dec-1-ene-8-sulfonyl]-ethyl}-benzoyl)-pyrrolidine-2-carboxylic acid amide]
15 | 102 | CC(=O)Nc1ccc(CCS(=O)(=O)N2CCC3(CC2)N=C(C2CC(C)(C)CC(C)(C)C2)NC3=O)c(C)c1 [Compound 926, N-(3-methyl-4-{2-[4-oxo-2-(3,3,5,5-tetramethyl-cyclohexyl)-1,3,8-triaza-spiro[4.5]dec-1-ene-8-sulfonyl]-ethyl}-phenyl)-acetamide]
16 | 53 | Cc1cc(CN2C(=O)CNC2=O)cc(C)c1CCS(=O)(=O)N1CCC2(CC1)N=C(C1CCC(C)CC1)NC2=O (stereo not shown) [Compound 779, 3-(3,5-dimethyl-4-{2-[2-(4-methyl-cyclohexyl)-4-oxo-1,3,8-triaza-spiro[4.5]dec-1-ene-8-sulfonyl]-ethyl}-benzyl)-imidazolidine-2,4-dione]
17 | 47 | COC(=O)NCCc1ccc(CCS(=O)(=O)N2CCC3(CC2)N=C(C2CCCCC2)NC3=O)cc1 [Compound 672, (2-{4-[2-(2-Cyclohexyl-4-oxo-1,3,8-triaza-spiro[4.5]dec-1-ene-8-sulfonyl)-ethyl]-phenyl}-ethyl)-carbamic acid methyl ester]
18 | 84 | CC(=O)N(C)Cc1cc(C)c(CCS(=O)(=O)N2CCC3(CC2)N=C(C2CCC(CCC(F)(F)F)CC2)NC3=O)c(C)c1 (stereo not shown) [Compound 784, N-[3,5-dimethyl-4-(2-{4-oxo-2-[4-(3,3,3-trifluoro-propyl)-cyclohexyl]-1,3,8-triaza-spiro[4.5]dec-1-ene-8-sulfonyl}-ethyl)-benzyl]-N-methyl-acetamide]
19 | 70 | O=C1NC(C2CCCCC2)=NC12CCN(S(=O)(=O)CCc1cccc3[nH]c(=O)oc13)CC2 [Compound 261, 2-Cyclohexyl-8-[2-(2-oxo-2,3-dihydro-benzoxazol-7-yl)-ethanesulfonyl]-1,3,8-triaza-spiro[4.5]dec-1-en-4-one]
20 | 76 | Cc1cc(N(C)C(N)=O)cc(C)c1/C=C/S(=O)(=O)N1CCC2(CC1)N=C(CCCCCCCCCCCN)NC2=O [Compound 1315, 1-(4-{(E)-2-[2-(11-Amino-undecyl)-4-oxo-1,3,8-triaza-spiro[4.5]dec-1-ene-8-sulfonyl]-vinyl}-3,5-dimethyl-phenyl)-1-methyl-urea]
21 | 79 | CC(=O)Nc1ccc(CCS(=O)(=O)N2CCC3(CC2)N=C(C2CCC(C)CC2)NC3=O)c(C)c1 (stereo not shown) [Compound 148, N-(3-methyl-4-{2-[2-(4-methyl-cyclohexyl)-4-oxo-1,3,8-triaza-spiro[4.5]dec-1-ene-8-sulfonyl]-ethyl}-phenyl)-acetamide]
22 | 98 | Cc1cc(C(=O)N2CCCO2)cc(C)c1CCS(=O)(=O)N1CCC2(CC1)N=C(C1CCC(CCC(F)(F)F)CC1)NC2=O (stereo not shown) [Compound 1181, 8-{2-[4-(isoxazolidine-2-carbonyl)-2,6-dimethyl-phenyl]-ethanesulfonyl}-2-[4-(3,3,3-trifluoro-propyl)-cyclohexyl]-1,3,8-triaza-spiro[4.5]dec-1-en-4-one]
23 | 71 | Cc1cc(C(=O)N(C)C)ccc1CCS(=O)(=O)N1CCC2(CC1)N=C(c1cccc(-c3cccnc3)c1)NC2=O [Compound 173, 3,N,N-trimethyl-4-{2-[4-oxo-2-(3-pyridin-3-yl-phenyl)-1,3,8-triaza-spiro[4.5]dec-1-ene-8-sulfonyl]-ethyl}-benzamide]

Row | Structure (SMILES) | cAMP production activity (%)
24 | Cc1cc(/C=C/S(=O)(=O)N2CCC3(CC2)N=C(c2cccc(OC(F)(F)F)c2)NC3=O)cc(C)c1OCCC(O)CO (stereo not shown) [Compound 601, 8-{(E)-2-[4-(3,4-dihydroxy-butoxy)-3,5-dimethyl-phenyl]-ethenesulfonyl}-2-(3-trifluoromethoxy-phenyl)-1,3,8-triaza-spiro[4.5]dec-1-en-4-one] | 64
25 | [2H]C([2H])([2H])C([2H])([2H])C([2H])([2H])C([2H])([2H])Oc1cc(C2=NC3(CCN(S(=O)(=O)/C=C/c4c(C)cc(C(=O)N5CCC(C)(O)CC5)cc4C)CC3)C(=O)N2)ccc1Cl [Compound 1231, 2-(3-[1,1,2,2,3,3,4,4,4-^2H9]butoxy-4-chloro-phenyl)-8-{(E)-2-[4-(4-hydroxy-4-methyl-piperidine-1-carbonyl)-2,6-dimethyl-phenyl]-ethenesulfonyl}-1,3,8-triaza-spiro[4.5]dec-1-en-4-one] | 88
